The record followed here is US11214803B2, “Modulators of YAP1 expression” (Ionis Pharmaceuticals, Inc., priority 2019, dated 2022).

Usually IC50 stands for the midpoint of a concentration-inhibition curve. Read a low IC50 as higher potency.

Strand notation (5' to 3'): a small letter for the sugar, then the base; units joined by * are phosphorothioate-linked, units joined directly phosphodiester-linked; [ ] holds rarer units or linkages, { } end groups; capitals alone tell only the bases. k = constrained ethyl (cEt); [5mC] = 5-methylcytosine; d = 2'-deoxy (DNA)

This series relates to Yap1 mRNA. The series is described as follows: Dose-dependent inhibition of human Yap1 in A-431 cells (Example 7, 10,000 cells per well, RTS36584). Type of series: cell-based. The settings on record: free uptake. The protocol:
Modified oligonucleotides described in the studies above were tested at various doses in A-431 cells. Cultured A-431 cells at a density of 10,000 cells per well were treated using free uptake with modified oligonucleotides diluted to concentrations described in the tables below. After approximately 48 hours, Yap1 mRNA levels were measured as previously described using the Human Yap1 primer-probe set RTS36584. Yap1 mRNA levels were normalized to total RNA content, as measured by RIBOGREEN®. Results are presented in the tables below as percent control of the amount of Yap1 mRNA relative to untreated control cells (% UTC). IC50s were calculated using a linear regression on a log/linear plot of the data in excel.

[1] abbreviates: 15.6 nM, A-431 cells, 10,000 cells per well, approximately 48 hours.
Setting [2] is: 62.5 nM, A-431 cells, 10,000 cells per well, approximately 48 hours.
Setting [3] is: 4000.00 nM, A-431 cells, 10,000 cells per well, approximately 48 hours.
The mark [4] stands for this setting: A-431 cells, approximately 48 hours, linear regression on log/linear plot.
[5] abbreviates: Table 59, 15.6 nM, A-431 cells 10,000 cells per well, 48 hours.
Setting [6] is: Table 59, 62.5 nM, A-431 cells 10,000 cells per well, 48 hours.
Setting [7] is: Table 59, 4000.00 nM, A-431 cells 10,000 cells per well, 48 hours.
The mark [8] stands for this setting: Table 59, A-431 cells 10,000 cells per well.
Setting [9] is: Table 56, 15.6 nM, A-431 cells 10,000 cells per well, 48 hours.
Setting [10] is: Table 56, 62.5 nM, A-431 cells 10,000 cells per well, 48 hours.
[11] abbreviates: Table 56, 4000.00 nM, A-431 cells 10,000 cells per well, 48 hours.
The mark [12] stands for this setting: Table 56, A-431 cells 10,000 cells per well.

Consider “958500 (kT*k[5mC]*kT*dA*dT*dA*dT*dT*dA*dG*dA*dG*dT*kA*kT*kG) [compound 958500]”, for which the “Yap1 mRNA, % UTC” value stood at 91 % UTC under setting [1], 63 % UTC under setting [2] and 16 % UTC under setting [3]. Moreover, it took 0.1 µM to reach half-maximal inhibition under setting [4] (IC50).

As for “958473 (kG*kT*k[5mC]*dT*d[5mC]*d[5mC]*dT*dT*dA*dG*dA*dT*d[5mC]*k[5mC]*kT*kT; antisense) [compound 958473]”, the “Yap1 mRNA, % UTC” value by setting is: (Table 60, 15.6 nM, A-431 cells 10,000 cells per well, 48 hours) 85 % UTC; (Table 60, 62.5 nM, A-431 cells 10,000 cells per well, 48 hours) 60 % UTC; (Table 60, 4000.00 nM, A-431 cells 10,000 cells per well, 48 hours) 17 % UTC. For the same substance, where the note is “Table 60, A-431 cells 10,000 cells per well”, half-maximal inhibition (IC50) was put at 0.1 µM.

As for “958531 (kG*kT*kA*dG*dG*dA*dG*d[5mC]*dA*dA*dG*dT*d[5mC]*kT*kT*kG; antisense) [compound 958531]”, the “Yap1 mRNA, % UTC” value runs as follows: (Table 57, 15.6 nM, A-431 cells 10,000 cells per well, 48 hours) 92 % UTC; (Table 57, 62.5 nM, A-431 cells 10,000 cells per well, 48 hours) 63 % UTC; (Table 57, 4000.00 nM, A-431 cells 10,000 cells per well, 48 hours) 13 % UTC. For the setting “Table 57, A-431 cells 10,000 cells per well”, this substance showed an IC50 of 0.1 µM.

On to “958562 (k[5mC]*kA*kT*dT*dG*dA*dA*dA*dG*dA*d[5mC]*d[5mC]*d[5mC]*kT*kT*kA; antisense) [compound 958562]”, for which the “Yap1 mRNA, % UTC” value is, setting by setting: under setting [5], 105 % UTC; under setting [6], 95 % UTC; under setting [7], 28 % UTC. The substance further yielded an IC50 under setting [8] of 0.4 µM.

Regarding “958737 (kG*kG*kA*dA*dT*dA*d[5mC]*dA*dA*dG*d[5mC]*d[5mC]*d[5mC]*kG*kA*kG; antisense) [compound 958737]”, the “Yap1 mRNA, % UTC” value was found to be 104 % UTC under setting [5], 92 % UTC under setting [6] and 29 % UTC under setting [7]. Under setting [8], this substance displayed an IC50 of 0.4 µM.

On to “958457 (antisense kG*kT*k[5mC]*dG*dA*dA*dG*dA*dT*dG*d[5mC]*dT*dG*kA*kG*k[5mC]) [compound 958457]”, for which the “Yap1 mRNA, % UTC” value stood at 91 % UTC (Table 58, 15.6 nM, A-431 cells 10,000 cells per well, 48 hours); 50 % UTC (Table 58, 62.5 nM, A-431 cells 10,000 cells per well, 48 hours); 13 % UTC (Table 58, 4000.00 nM, A-431 cells 10,000 cells per well, 48 hours). Also, for the setting “Table 58, A-431 cells 10,000 cells per well”, half-maximal inhibition (IC50) was put at 0.1 µM.

In the case of “958735 (kA*kG*k[5mC]*dA*dA*dT*d[5mC]*dT*dT*dG*dT*dG*dG*kA*kT*k[5mC]; antisense) [compound 958735]”, the “Yap1 mRNA, % UTC” value stood at 116 % UTC under setting [1], 69 % UTC under setting [2] and 23 % UTC under setting [3]. In addition, the IC50 under setting [4] was 0.2 µM.

“958550 (k[5mC]*k[5mC]*kT*dG*dT*dA*dG*dA*d[5mC]*dA*d[5mC]*dA*dT*kA*k[5mC]*kT; antisense) [compound 958550]”: the “Yap1 mRNA, % UTC” value by setting is: under setting [1], 91 % UTC; under setting [2], 60 % UTC; under setting [3], 10 % UTC. This substance also returned an IC50 under setting [4] of 0.1 µM.

As to “958796 (kA*kT*kT*dA*dT*dA*dT*dG*dG*dT*dT*dG*d[5mC]*kT*kT*k[5mC]; antisense) [compound 958796]”, the “Yap1 mRNA, % UTC” value by setting is: under setting [9], 91 % UTC; under setting [10], 62 % UTC; under setting [11], 15 % UTC. The substance also showed an IC50 under setting [12] of 0.13 µM.

Consider “958544 (kG*k[5mC]*kT*dA*dA*dA*dT*dT*d[5mC]*dA*dA*d[5mC]*dT*kA*k[5mC]*k[5mC]; antisense) [compound 958544]”, for which the “Yap1 mRNA, % UTC” value under setting [1] is given as 65 % UTC; the “Yap1 mRNA, % UTC” value under setting [2] is 77 % UTC; the “Yap1 mRNA, % UTC” value under setting [3] is 17 % UTC. This substance displayed a half-maximal inhibitory concentration (IC50) under setting [4] of 0.1 µM.

As to “958361 (antisense kG*k[5mC]*kT*d[5mC]*dG*dA*dA*d[5mC]*dA*dT*dG*d[5mC]*dT*kG*kT*kG) [compound 958361]”, the “Yap1 mRNA, % UTC” value was found to be 100 % UTC under setting [9], 80 % UTC under setting [10] and 22 % UTC under setting [11]. Under setting [12], this substance came in with an IC50 of 0.22 µM.

Take “958507 (kG*kA*kG*d[5mC]*dA*dG*dA*dT*dA*dA*dT*d[5mC]*dG*kA*kG*kA; antisense) [compound 958507]”: the “Yap1 mRNA, % UTC” value under setting [5] amounted to 93 % UTC; the “Yap1 mRNA, % UTC” value under setting [6] was determined as 69 % UTC; the “Yap1 mRNA, % UTC” value under setting [7] stood at 19 % UTC. Under setting [8], this substance returned an IC50 of 0.2 µM.
